The text below walks through data of ChEMBL document CHEMBL1140352, “Synthesis and structure-activity relationship of novel 6-aryl-1,4-dihydrobenzo[d][1,3]oxazine-2-thiones as progesterone receptor modulators leading to the potent and selective nonsteroidal progesterone receptor agonist tanaproget” (J Med Chem, 2005).

In the first assay the test system is T47D. Kind of assay: Effective concentration against alkaline phosphatase activity in human T47D breast carcinoma cell line. It is filed as functional, cell-based.
`CC1Nc2ccc(-c3ccc(F)c(C#N)c3)cc2C(C)(C)O1` (configuration not stated) returned an EC50 of 23 nM.

For `CCC1(CC)OC(S)=Nc2ccc(-c3ccc(C#N)n3C)cc21`, it took 0.1 nM to reach a half-maximal effect (EC50).

On to `CCC1(C)OC(S)=Nc2ccc(-c3ccc(C#N)n3C)cc21` (configuration not stated), for which the EC50 was found to be 0.1 nM.

In turn, `Cn1c(C#N)ccc1-c1ccc2c(c1)C1(CCC1)OC(S)=N2` yielded an EC50 of 0.5 nM.

The compound `Cn1c(C#N)ccc1-c1ccc2c(c1)C(C)(c1cccs1)OC(S)=N2` (configuration not stated) registered an EC50 of 0.35 nM.

With `CC1(C)OC(S)=Nc2ccc(-c3coc(C#N)c3)cc21`, the EC50 came out at 1.2 nM.

In turn, `CC1(C)OC(S)=Nc2ccc(-c3csc(C#N)c3)cc21` yielded an EC50 of 0.4 nM.

The compound `CN1C(=S)OC(C)(C)c2cc(-c3ccc(C#N)[nH]3)ccc21` registered an EC50 of 21.1 nM.

Take `CC1(C)OC(=S)Nc2ccc(-c3ccc(C#N)[nH]3)cc21`: it took 0.15 nM to reach a half-maximal effect (EC50).

In turn, `Cn1c(C#N)ccc1-c1ccc2c(c1)C(C)(C)OC(=O)N2` gave an EC50 of 1.1 nM.

On to `Cn1c(C#N)ccc1-c1ccc2c(c1)C(C)(C)OC(=S)N2` [TANAPROGET], for which it took 0.15 nM to reach a half-maximal effect (EC50).

In another assay the target is T1, Progesterone receptor (Homo sapiens, UniProt P06401).
T1 sequence (P06401 whole entry): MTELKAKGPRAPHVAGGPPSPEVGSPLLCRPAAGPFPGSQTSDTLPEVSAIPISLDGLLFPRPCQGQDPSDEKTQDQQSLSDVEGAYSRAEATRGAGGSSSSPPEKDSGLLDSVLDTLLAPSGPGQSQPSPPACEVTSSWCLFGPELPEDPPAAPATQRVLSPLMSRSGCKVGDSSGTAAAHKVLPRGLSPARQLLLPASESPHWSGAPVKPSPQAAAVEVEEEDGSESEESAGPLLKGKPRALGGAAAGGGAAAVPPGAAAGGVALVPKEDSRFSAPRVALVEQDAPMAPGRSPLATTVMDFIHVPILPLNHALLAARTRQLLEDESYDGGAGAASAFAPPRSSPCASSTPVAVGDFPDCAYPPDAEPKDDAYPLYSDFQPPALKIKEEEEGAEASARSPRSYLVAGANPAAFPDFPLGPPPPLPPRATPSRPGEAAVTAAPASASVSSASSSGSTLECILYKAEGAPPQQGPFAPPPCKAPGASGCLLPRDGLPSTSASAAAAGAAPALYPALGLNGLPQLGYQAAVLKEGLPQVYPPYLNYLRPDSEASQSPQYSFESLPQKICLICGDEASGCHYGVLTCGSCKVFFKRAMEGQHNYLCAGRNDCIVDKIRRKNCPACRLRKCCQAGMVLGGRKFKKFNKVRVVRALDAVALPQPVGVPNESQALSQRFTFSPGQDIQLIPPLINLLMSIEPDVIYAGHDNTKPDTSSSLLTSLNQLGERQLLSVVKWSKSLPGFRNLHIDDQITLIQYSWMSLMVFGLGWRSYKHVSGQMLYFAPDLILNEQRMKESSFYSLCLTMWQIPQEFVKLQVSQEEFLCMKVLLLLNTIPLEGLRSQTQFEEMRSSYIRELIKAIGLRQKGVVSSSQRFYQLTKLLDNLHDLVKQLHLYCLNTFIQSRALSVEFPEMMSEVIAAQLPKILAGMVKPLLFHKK
Kind of assay: Inhibition of human progesterone receptor.
`CC(C)n1c(=O)[nH]c2ccc(-c3cccc(Cl)c3)cc21` registered an IC50 of 73 nM.
